Like-named read-outs stand apart in the source and are kept apart here.
Key:
WI-38 cells = assay: CdCl2 (cadmium) resistance assay; format: cell-based, human; conditions: for fold induction at 10 µM: Homo sapiens, 12 h, normalized ATP measurement; for Assay 4: H2O2- & Cd-resistant / Assay 2: Cadmium-resistant: YES/NO; for Assay 2: Cadmium-resistant: * indicates partial
Method in brief: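 Resistance to CdCl2 or MMS stress (12 h exposure) was scored in WI-38 fibroblasts pretreated with compound at 0.25–20 μM final, five doses, technical triplicates. MMS plates had compound added 24 h before MMS, after a shift to serum-free DMEM+2% BSA. Significance came from a global variance t-test over two independent runs.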

FOXO3 = FOXO3 siRNA knockdown: dependency for H2O2-resistance; format: cell-based, human; conditions: for FOXO3-dependency for H2O2-resistance (experiment 3): with & without H2O2, FOXO3 knockdown in WI-38 cells
Description: For qPCR analysis, WI-38 cells were treated with small molecules (at 10 μM) (biological quadruplicates) for 24 hrs and processed for RNA isolation and reverse transcription (RT) with the Cells-to-Ct Kit (Life Technologies), following manufacturer's instructions. RT products were diluted with H2O and used for qPCR analysis on an ABI 7300 system (Life Technologies) (technical triplicates). Relative expression levels of target genes were normalized to the genes B2M, PPIA and GAPDH. To knock down the expression of FOXO3 or NRF2, WI-38 cells were transfected, using the RNAiMAX reagents (Life Technologies), with siRNA oligos (at 10 nM final concentration, 10 ml culture medium) for FOXO3 (Life Technologies) or NRF2 (Integrated DNA Technologies) on 10-cm petri dishes for 36 hrs, and then detached and aliquoted onto 96-well (for qPCR analysis) or 384-well plates (for H2O2-stress treatment). ˜24 hrs later, small molecules were introduced and incubated with cells for 24 hrs. Cells were then either processed with the Cells-to-Ct Kit to prepare RT products for qPCR analysis or subjected to H2O2 (700 μM) for 3 hrs and assayed for viability. The knockdown efficiency of FOXO3 or NRF2 was checked at 36 hrs post-transfection and at the end as well. […]
Applicants used siRNA to knock down FOXO3 expression by ˜70% in an attempt to identify whether the activation of these genes depends on activity of FOXO3 and/or NRF2. […] We used siRNA to knock down FOXO3 expression by ˜60% to 70% (FIG. 3; see data in Table 6). […] (Given the caveat that FOXO3 was not fully knocked down, partial dependency was scored when the H2O2-resistance capacity was reduced by at least 25% but less than 50% upon siRNA knockdown). At least for Gr-7A and Gr-7C, which are structurally related, the observed FOXO3-dependency for H2O2-resistance is consistent with their strong effects to induce FOXO3 target genes (Tables 1a-1f, Table 6, & Table 15), including SOD2 and GADD45A.

NRF2 = assay: in vitro; format: cell-based, human; conditions: for viability of non-stressed cells, reduced by: human, 24 h
[1] = test system: human dermal fibroblast (HDF) primary cells; assay: H2O2-resistance in primary human dermal fibroblasts; format: cell-based; conditions: for fold induction at 10 µM: Homo sapiens; for Assay 6: H2O2-resistant, at 10 uM, human dermal fibroblast (HDF) primary cells: YES/NO
[2] = Exp. 1, WI-38 cells, read-out: Exp. 1, under Cd2Cl2 stress treatment, at 10 uM (fold change)
[3] = Exp. 2, WI-38 cells, read-out: Exp. 2, under Cd2Cl2 stress treatment, at 10 uM (fold change)
[4] = WI-38 cells, 10 μM, both stressors
[5] = score in summary of 38 core set hits
[6] = 10 uM, YES = resistance reduced by at least 50%, partial = 25% to 50%
[7] = 10 uM, with H2O2, NRF2 knockdown in WI-38 cells, YES = resistance reduced by at least 50%, partial = 25% to 50%
[8] = Experiment 1, HDF cells, read-out: Experiment 1, HDF cells (under H2O2 stress treatment), at 10 uM (fold change)
[9] = Experiment 2, HDF cells, read-out: Experiment 2, HDF cells (under H2O2 stress treatment), at 10 uM (fold change)

Row | Compound | CdCl2-resistant (WI-38 cells) | H2O2- & CdCl2-resistant (WI-38 cells) | fold induction at 10 µM (WI-38 cells; [2]) | fold induction at 10 µM (WI-38 cells; [3]) | CdCl2-resistant (WI-38 cells; WI-38 cells, 10 μM) | H2O2- & CdCl2-resistant (WI-38 cells; [4]) | Assay 4: H2O2- & Cd-resistant (WI-38 cells) | Assay 2: Cadmium-resistant (WI-38 cells) | A = Cadmium resistant (WI-38 cells; [5]) | A = Cadmium resistant (WI-38 cells; summary score) | C = H2O2- & Cd-resistant (WI-38 cells; summary score) | I = FOXO3-dependency for H2O2-resistance (FOXO3; score) | I = FOXO3-dependency for H2O2-resistance (FOXO3; summary score) | J = NRF2-dependency for H2O2-resistance (NRF2; score) | J = NRF2-dependency for H2O2-resistance (NRF2; summary score) | fold induction at 10 µM [1, 8] | fold induction at 10 µM [1, 9] | Assay 6: H2O2-resistant, at 10 uM, human dermal fibroblast (HDF) primary cells [1] | further results
1 | NS(=O)(=O)c1ccc(NC(=O)c2ccc([N+](=O)[O-])o2)cc1 [Gr-1A] | YES | YES | 1.46 | 1.45 | YES | YES | YES | YES | 1 | 1 | 1 | 0 | 0 | 1 | 1 | 3.89 | 52.5 | YES | FOXO3-dependency for H2O2-resistance (experiment 3) (FOXO3; [6]): No; FOXO3-dependency for H2O2-resistance (experiment 1 & 2) (FOXO3; 10 uM, with H2O2, FOXO3 knockdown in WI-38 cells, YES = resistance reduced by at least 50%, partial = 25% to 50%): No; Survival of NRF2 siRNA-transfected cells in the absence of H2O2 (NRF2): could reduce the survival; NRF2-dependency for H2O2-resistance, at 10 uM - with H2O2, 2nd experiment (NRF2; 10 uM, experiment 2 (2nd), with H2O2): 2nd, partial.; NRF2-dependency for H2O2-resistance, 2nd experiment (NRF2; [7]): partial; Assay 17: NRF2-dependency for H2O2-resistance (NRF2; 10 uM, YES/NO): YES; NRF2-dependency of H2O2-resistance (NRF2 siRNA knockdown) (NRF2; at least 2 of 3 independent experiments): significantly attenuate; viability of non-stressed cells, reduced by (NRF2; 10 uM): by 30%)
2 | O=C(Nc1cc(C(F)(F)F)ccc1Cl)c1ccc([N+](=O)[O-])o1 [Gr-1B] | YES | YES | 2.01 | 1.72 | YES | YES | YES | YES | 1 | 1 | 1 | 0 | 0 | 0 | 0 | 0.51 | 53.7 | YES | –
3 | CCc1ccccc1NC(=O)c1ccc([N+](=O)[O-])o1 [Gr-1C] | YES | YES | 7.9 | 9.86 | YES | YES | YES | YES | 1 | 1 | 1 | 0 | 0 | 0 | 0 | 15.2 | 49.1 | YES | –
4 | O=C(Nc1cccc(Cl)c1)c1ccc([N+](=O)[O-])o1 [Gr-1D] | YES | YES | 3.14 | 3.84 | YES | YES | YES | YES | 1 | 1 | 1 | 0 | 0 | 0 | 0 | 2.79 | 49.3 | YES | –
5 | O=C(Nc1cccc(C(F)(F)F)c1)c1ccc([N+](=O)[O-])o1 [Gr-1E] | YES | YES | 6.69 | 8.82 | YES | YES | YES | YES | 1 | 1 | 1 | 0 | 0 | 0 | 0 | 1.4 | 31 | YES | –
6 | Cc1ccc(NC(=O)c2ccc([N+](=O)[O-])o2)cc1C [Gr-1F] | YES | YES | 6.65 | 4.8 | YES | YES | YES | YES | 1 | 1 | 1 | 0 | 0 | 0 | 0 | 5.84 | 52.3 | YES | FOXO3-dependency for H2O2-resistance, at 10 uM (experiment 3) - with & without H2O2 (FOXO3; 10 uM, experiment 3, with & without H2O2): YES; FOXO3-dependency for H2O2-resistance (experiment 3) (FOXO3; [6]): YES; viability of non-stressed cells, reduced by (NRF2; 10 uM): by 50%)
7 | O=C(Nc1ccc(Cl)c(Cl)c1)c1ccc([N+](=O)[O-])o1 [Gr-1G] | YES | YES | 3.81 | 7.21 | YES | YES | YES | YES | 1 | 1 | 1 | 0 | 0 | 0 | 0 | – | – | YES | NRF2-dependency for H2O2-resistance, at 10 uM - with H2O2, 1st experiment (NRF2; 10 uM, experiment 1 (1st), with H2O2): 1st, YES;; NRF2-dependency for H2O2-resistance, 1st experiment (NRF2; [7]): YES;
8 | O=[N+]([O-])c1ccccc1S(=O)(=O)Nc1cccc2cccnc12 [Gr-3A] | YES | YES | 1.93 | 1.64 | YES | YES | YES | YES | 1 | 1 | 1 | 0 | 0 | 0 | 0 | 2.38 | 1.67 | YES | –
9 | Cc1ccc(S(=O)(=O)Nc2cccc3cccnc23)cc1 [Gr-3B] | – | – | 2.1 | 2.88 | – | – | – | – | 0 | 0 | 0 | 0 | 0 | 0 | 0 | 3.1 | 1.59 | YES | –

— patent publication US11413278B2, “Compounds and methods for promoting stress resistance” (priority 2015, dated 2022)
